# How the values were obtained:
# Format in all cases: in vivo, human
# [1] = test system: Protein C inhibitor (PCI) expression; test: Real time PCR of PCI expression in muscle, pre- vs post-troglitazone-treated patients; details: mean diabetic post-Tro/mean diabetic pre-Tro expression
# Method: The gene expression changes observed in the human muscle samples derived from the various comparison populations analyzed in the profiling analysis described above were further confirmed by the use of real-time quantitative PCR. A combination of specific PCR primers and a Taqman probe were designed to detect and quantify expression levels for each gene. Relative gene expression levels were determined in this manner in each patient and the mean expression levels in the comparison populations were then calculated. PCI expression was also evaluated by real time PCR in lean vs. obese individuals and in pre-troglitazone-treated vs post-troglitazone-treated patients.
# MAST205 expression = test: Real-time PCR (Taqman) specific for MAST205 in muscle before/after 3 months troglitazone
# Method: (§1) The gene expression changes observed in the human muscle samples derived from the various comparison populations analyzed in the profiling analysis described above were further confirmed by the use of real-time quantitative PCR. A combination of specific PCR primers and a Taqman probe were designed to detect and quantify expression levels for each gene. Relative gene expression levels were determined in this manner in each patient and the mean expression levels in the comparison populations were then calculated. […] PCR primers and Taqman Probe were designed to detect specifically the expression of MAST205. The sequences of the primers was as follows: […]
# MAST205b expression = test: Real-time PCR (Taqman) specific for MAST205b in muscle before/after 3 months troglitazone
# Method: as §1, with “MAST205b.” for “MAST205.”
# [2] = test system: Protein C inhibitor (PCI) transcripts; test: Gene expression profiling (Affymetrix chips) of muscle from diabetics before/after 3 months troglitazone: PCI; details: basal muscle sample
# From the text: The molecular mechanism by which thiazolidinediones (TZDs) cause an increase in peripheral insulin sensitivity was studied. Genes in muscle or fat whose expression is altered by TZDs may lie on a pathway leading from TZD treatment to increased insulin sensitivity. Modulators of such genes can elicit the same effect as TZD treatment. Moreover, such modulators can lack some of the side effects of TZD. The majority of glucose disposal occurs in muscle. For this reason, gene expression profiling in human muscle from diabetics treated with troglitazone was used to identify genes important for TZD action and therefore treatment of diabetes and insulin resistance. Gene expression profiling was performed on tissue samples (muscle) obtained from lean obese and diabetic individuals. […] Gene expression profile differences were calculated as follows. […] The raw data was analyzed by a statistical test to remove ‘outliers’. The mean ‘average difference score’ was then calculated from the average difference scores for all individuals in a particular treatment group. Genes were determined to be changed in three different comparisons by calculating the Students t test statistic between two conditions and selecting those with t less than or equal to 0.05. Fold change was determined as the ratio of mean average difference score in condition 2 to the mean average difference score in condition 1. […]
# [3] = test system: MAST205/MAST205b transcripts; test: Gene expression profiling (Affymetrix chips) of muscle from diabetics before/after 3 months troglitazone: MAST205/MAST205b; details: basal muscle sample
# Method: Gene expression profiling was performed on tissue samples (muscle) obtained from lean obese and diabetic individuals. Two studies were performed. In the first study, basal samples were isolated from all individuals at the beginning of a 5 hour hyperinsulinemic euglycemic clamp. Clamp samples were isolated at the end of this procedure. Similar basal and clamp samples were taken 3 months later after all patients had taken the insulin sensitizing drug troglitazone (tro). Gene expression profile differences were calculated as follows. The expression level of a particular gene is indicated by its ‘average difference score’. The raw data was analyzed by a statistical test to remove ‘outliers’. The mean ‘average difference score’ was then calculated from the average difference scores for all individuals in a particular treatment group. Genes were determined to be changed in three different comparisons by calculating the Students t test statistic between two conditions and selecting those with t less than or equal to 0.05. Fold change was determined as the ratio of mean average difference score in condition 2 to the mean average difference score in condition 1. The first comparison is basal leans (condition 1) versus basal obese (condition 2). The second comparison is basal leans (condition 1) versus basal diabetics (condition). […]
# [4] = muscle, lean individuals after 3 months troglitazone, relative to Lean Pre-Trog = 100%
# [5] = ratio of relative expression Diabetic Post-Trog to Diabetic Pre-Trog
# [6] = 3 months troglitazone, gene profiling
smiles,measurement,setting,value
Cc1c(C)c2c(c(C)c1O)CCC(C)(COc1ccc(CC3SC(=O)NC3=O)cc1)O2 (centres unmarked) [troglitazone],"Expression Fold change, Diabetics + Tro/Diabetics − Tro (PCI)",[1],0.33
same,"Relative Exp (%), Diabetic Post-Tro (MAST205)","MAST205 expression; muscle, diabetics after 3 months troglitazone, relative to Lean Pre-Trog = 100%, Diabetic Pre-Trog 242",66%
same,"Relative Exp (%), Lean Post-Trog (MAST205)",MAST205 expression; [4],98%
same,Fold Change (D+/D−) (MAST205),MAST205 expression; [5],0.27
same,"Relative Exp (%), Diabetic Post-Tro (MAST205b)","MAST205b expression; muscle, diabetics after 3 months troglitazone, relative to Lean Pre-Trog = 100%, Diabetic Pre-Trog 197",111%
same,"Relative Exp (%), Lean Post-Trog (MAST205b)",MAST205b expression; [4],88%
same,Fold Change (D+/D−) (MAST205b),MAST205b expression; [5],0.56
same,"Fold Change (diabetic post tro/diabetic pre tro), Protein C inhibitor",[2]; [6],0.51
same,"Mean Expr, Diabetic Post-Trog (Protein C inhibitor)","[2]; diabetics after 3 months of Troglitazone treatment, pre-Trog mean 1422",722
same,"Fold Change, Diabetic Post-Trog vs Pre-Trog (MAST205)",[3]; [6],0.74
same,"Mean Expr, Diabetic Post-Trog (MAST205)","[3]; diabetics after 3 months troglitazone, pre-Trog mean 1234",919
